# In US9902716B2, “Fluorinated benzofuranyl-pyrimidine derivatives containing a sulfone group” (Bayer Pharma Aktiengesellschaft, priority 2014, dated 2018):
# Assays:
# CDK9/CycT1 = biological target: T1, CDK9/CycT1 (Homo sapiens, UniProt P50750); test: CDK9/CycT1 kinase assay (Method 1a, TR-FRET); format: biochemical; conditions: 10 μM ATP; for IC50: Method 1a; for Selectivity CDK9 over CDK2: IC50 (CDK2)/IC50 (CDK9): Methods 1a and 2a
# T1 construct: Recombinant full-length His-tagged human CDK9 and CycT1; His; purchased Invitrogen PV4131; host or cells: insect cells
# T1 sequence (P50750 whole entry): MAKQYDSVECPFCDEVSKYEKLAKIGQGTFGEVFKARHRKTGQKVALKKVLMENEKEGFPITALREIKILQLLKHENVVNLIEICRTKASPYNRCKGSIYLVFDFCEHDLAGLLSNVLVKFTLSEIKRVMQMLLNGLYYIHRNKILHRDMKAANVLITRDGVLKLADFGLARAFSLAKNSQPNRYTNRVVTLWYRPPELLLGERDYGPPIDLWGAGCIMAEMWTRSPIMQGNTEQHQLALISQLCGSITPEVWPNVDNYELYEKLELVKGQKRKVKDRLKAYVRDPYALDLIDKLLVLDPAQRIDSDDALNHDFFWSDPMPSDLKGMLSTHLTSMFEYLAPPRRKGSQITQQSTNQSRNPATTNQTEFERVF
# T1 sequence (O60563 whole entry partner): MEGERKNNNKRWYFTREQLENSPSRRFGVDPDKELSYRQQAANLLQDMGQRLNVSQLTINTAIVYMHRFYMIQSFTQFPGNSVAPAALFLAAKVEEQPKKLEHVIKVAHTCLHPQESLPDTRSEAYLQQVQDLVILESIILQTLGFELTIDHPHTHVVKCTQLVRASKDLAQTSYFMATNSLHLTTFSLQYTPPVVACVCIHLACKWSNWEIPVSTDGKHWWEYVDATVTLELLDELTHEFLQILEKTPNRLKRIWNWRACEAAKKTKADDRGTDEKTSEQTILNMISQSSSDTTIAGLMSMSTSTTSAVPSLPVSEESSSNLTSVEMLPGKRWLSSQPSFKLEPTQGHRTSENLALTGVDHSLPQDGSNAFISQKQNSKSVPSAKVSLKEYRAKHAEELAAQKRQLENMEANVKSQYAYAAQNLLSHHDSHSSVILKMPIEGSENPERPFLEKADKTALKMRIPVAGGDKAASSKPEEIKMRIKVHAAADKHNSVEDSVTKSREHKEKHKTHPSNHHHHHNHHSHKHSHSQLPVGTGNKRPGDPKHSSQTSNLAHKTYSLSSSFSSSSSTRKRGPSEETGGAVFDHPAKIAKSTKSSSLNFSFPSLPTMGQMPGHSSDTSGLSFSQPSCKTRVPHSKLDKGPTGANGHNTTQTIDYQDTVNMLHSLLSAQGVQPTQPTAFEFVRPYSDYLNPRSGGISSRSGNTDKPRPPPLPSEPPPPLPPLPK
# Description: 1a. CDK9/CycT1 Kinase Assay:
# CDK9/CycT1-inhibitory activity of compounds of the present invention was quantified employing the CDK9/CycT1 TR-FRET assay as described in the following paragraphs:
# Recombinant full-length His-tagged human CDK9 and CycT1, expressed in insect cells and purified by Ni-NTA affinity chromatography, were purchased from Invitrogen (Cat. No PV4131). As substrate for the kinase reaction biotinylated peptide biotin-Ttds-YISPLKSPYKISEG (C-terminus in amid form) was used which can be purchased e.g. form the company JERINI Peptide Technologies (Berlin, Germany). For the assay 50 nl of a 100 fold concentrated solution of the test compound in DMSO was pipetted into a black low volume 384 well microtiter plate (Greiner Bio-One, Frickenhausen, Germany), 2 μl of a solution of CDK9/CycT1 in aqueous assay buffer [50 mM Tris/HCl pH 8.0, 10 mM MgCl2, 1.0 mM dithiothreitol, 0.1 mM sodium ortho-vanadate, 0.01% (v/v) Nonidet-P40 (Sigma)] were added and the mixture was incubated for 15 min at 22° C. to allow pre-binding of the test compounds to the enzyme before the start of the kinase reaction. Then the kinase reaction was started by the addition of 3 μl of a solution of adenosine-tri-phosphate (ATP, 16.7 μM=> final conc. in the 5 μl assay volume is 10 μM) and substrate (1.67 μM=> final conc. in the 5 μl assay volume is 1 μM) in assay buffer and the resulting mixture was incubated for a reaction time of 25 min at 22° C. The concentration of CDK9/CycT1 was adjusted depending of the activity of the enzyme lot and was chosen appropriate to have the assay in the linear range, typical concentrations were in the range of 1 μg/mL. The reaction was stopped by the addition of 5 μl of a solution of TR-FRET detection reagents (0.2 μM streptavidine-XL665 [Cisbio Bioassays, Codolet, France] and 1 nM anti-RB(pSer807/pSer811)-antibody from BD Pharmingen [#558389] and 1.2 nM LANCE EU-W1024 labeled anti-mouse IgG antibody [Perkin-Elmer, product no. AD0077]) in an aqueous EDTA-solution (100 mM EDTA, 0.2% (w/v) bovine serum albumin in 100 mM HEPES/NaOH pH 7.0).
# (§1) The resulting mixture was incubated 1 h at 22° C. to allow the formation of complex between the phosphorylated biotinylated peptide and the detection reagents. Subsequently the amount of phosphorylated substrate was evaluated by measurement of the resonance energy transfer from the Euchelate to the streptavidine-XL. Therefore, the fluorescence emissions at 620 nm and 665 nm after excitation at 350 nm was measured in a HTRF reader, e.g. a Rubystar (BMG Labtechnologies, Offenburg, Germany) or a Viewlux (Perkin-Elmer). The ratio of the emissions at 665 nm and at 622 nm was taken as the measure for the amount of phosphorylated substrate. The data were normalised (enzyme reaction without inhibitor=0% inhibition, all other assay components but no enzyme=100% inhibition).
# CDK2/CycE = biological target: T2, CDK2/CycE (Homo sapiens, UniProt P24941); test: CDK2/CycE kinase assay (Method 2a, TR-FRET); format: biochemical; conditions: 10 μM ATP
# T2 construct: GST; purchased ProQinase GmbH (Freiburg, Germany); host or cells: insect cells (Sf9)
# Description: 2a. CDK2/CycE Kinase Assay:
# CDK2/CycE-inhibitory activity of compounds of the present invention was quantified employing the CDK2/CycE TR-FRET assay as described in the following paragraphs:
# Recombinant fusion proteins of GST and human CDK2 and of GST and human CycE, expressed in insect cells (Sf9) and purified by Glutathion-Sepharose affinity chromatography, were purchased from ProQinase GmbH (Freiburg, Germany). As substrate for the kinase reaction biotinylated peptide biotin-Ttds-YISPLKSPYKISEG (C-terminus in amid form) was used which can be purchased e.g. form the company JERINI Peptide Technologies (Berlin, Germany).
# For the assay 50 nl of a 100 fold concentrated solution of the test compound in DMSO was pipetted into a black low volume 384 well microtiter plate (Greiner Bio-One, Frickenhausen, Germany), 2 μl of a solution of CDK2/CycE in aqueous assay buffer [50 mM Tris/HCl pH 8.0, 10 mM MgCl2, 1.0 mM dithiothreitol, 0.1 mM sodium ortho-vanadate, 0.01% (v/v) Nonidet-P40 (Sigma)] were added and the mixture was incubated for 15 min at 22° C. to allow pre-binding of the test compounds to the enzyme before the start of the kinase reaction. Then the kinase reaction was started by the addition of 3 μl of a solution of adenosine-tri-phosphate (ATP, 16.7 μM=> final conc. in the 5 μl assay volume is 10 μM) and substrate (1.25 μM=> final conc. in the 5 μl assay volume is 0.75 μM) in assay buffer and the resulting mixture was incubated for a reaction time of 25 min at 22° C. […]
# as §1, with “TR-FRET” for “HTRF”, “The ratio of the emissions at 665 nm and at 622 nm was taken as the measure for the amount of phosphorylated substrate. The data were normalised (enzyme reaction without inhibitor=0% inhibition, all other assay components but no enzyme=100% inhibition).” left out
IC50 (CDK9/CycT1) [nM],Selectivity CDK9 over CDK2: IC50 (CDK2)/IC50 (CDK9) (CDK9/CycT1),IC50 (CDK2/CycE) [nM],Compound
2,29,57,"Cc1cc(CS(C)(=O)=O)cc(Nc2ncc(F)c(-c3ccc(F)c4ccoc34)n2)c1 [Example 4, 5-Fluoro-4-(4-fluoro-1-benzofuran-7-yl)-N-{3-methyl-5-[(methylsulfonyl)methyl]-phenyl}pyrimidin-2-amine]"
2,,,CS(=O)(=O)Cc1cc(F)cc(Nc2ncc(F)c(-c3ccc(F)c4ccoc34)n2)c1 [Example 3]
4,44,175,"CS(=O)(=O)Cc1cccc(Nc2ncc(F)c(-c3ccc(F)c4ccoc34)n2)c1 [Example 1, 5-Fluoro-4-(4-fluoro-1-benzofuran-7-yl)-N-{3-[(methylsulfonyl)methyl]-phenyl}pyrimidin-2-amine]"
3,37,112,"CCS(=O)(=O)Cc1cccc(Nc2ncc(F)c(-c3ccc(F)c4ccoc34)n2)c1 [Example 2, N-{3-[(Ethylsulfonyl)methyl]phenyl}-5-fluoro-4-(4-fluoro-1-benzofuran-7-yl)pyrimidin-2-amine]"
